From PubChem BioAssay AID192 (DTP/NCI, 2004)
“And” between values parts separate entries of the source, which are not always exact repeats. Identical values can stand only once. Inconclusive results and toxic doses are left out.

Test system: BDF1 mice, B16 melanoma ip, median survival T/C
Experiment: NCI In Vivo Anticancer Drug Screen. Data for tumor model B16 Melanoma (intraperitoneal) in B6D2F1 (BDF1) mice
Details: endpoint: median survival time, higher = longer survival
Outline: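 Values are ratios of treated (T) to vehicle-control (C) measurements of survival or tumor size in tumor-bearing mice.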

[1] = dose: 50.0 mg/kg/injection, schedule: Q01DX009 (ip), vehicle: Klucel (hydroxypropylcellulose) (HPC)
[2] = dose: 100.0 mg/kg/injection, schedule: Q01DX009 (ip), vehicle: Klucel (hydroxypropylcellulose) (HPC)

For C=C(C)C12CC(COC(=O)c3ccccc3)C34OC5(OC1C3C1OC1(CO)C(O)C1(O)C(OC(=O)c3ccccc3)C(C)C(C(C)CCCCCCC5O)C14)O2 (centres undefined), the T/C (dose: 3.8 micrograms/kg/injection, schedule: Q01DX009 (ip), vehicle: saline with Tween-80) was 93 % of control and the T/C (dose: 7.5 micrograms/kg/injection, schedule: Q01DX009 (ip), vehicle: saline with Tween-80) was 97 % of control.

[Cl][Pt+2][Cl].[NH-]C1CCCCC1.[NH-]C1CCCCC1 was tested, and the T/C (dose: 6.25 mg/kg/injection, schedule: Q01DX009 (ip), vehicle: Klucel (hydroxypropylcellulose) (HPC)) was 105 % of control, the T/C (dose: 12.5 mg/kg/injection, schedule: Q01DX009 (ip), vehicle: Klucel (hydroxypropylcellulose) (HPC)) was 110 % of control and the T/C (dose: 25.0 mg/kg/injection, schedule: Q01DX009 (ip), vehicle: Klucel (hydroxypropylcellulose) (HPC)) was 92 % of control and 117 % of control. The T/C [1] was 97 % of control.

With O=C1CC(c2ccc(OCN(CCCl)CCCl)cc2)CC(=O)C1CN(CCCl)CCCl (centres undefined) the T/C (dose: 0.5 mg/kg/injection, schedule: Q01DX009 (ip), vehicle: Klucel (hydroxypropylcellulose) (HPC)) was 97 % of control, the T/C (dose: 1.0 mg/kg/injection, schedule: Q01DX009 (ip), vehicle: Klucel (hydroxypropylcellulose) (HPC)) was 100 % of control and the T/C (dose: 2.0 mg/kg/injection, schedule: Q01DX009 (ip), vehicle: Klucel (hydroxypropylcellulose) (HPC)) was 100 % of control. The T/C (dose: 4.0 mg/kg/injection, schedule: Q01DX009 (ip), vehicle: Klucel (hydroxypropylcellulose) (HPC)) was 99 % of control and the T/C (dose: 8.0 mg/kg/injection, schedule: Q01DX009 (ip), vehicle: Klucel (hydroxypropylcellulose) (HPC)) was 104 % of control.

In the case of CCCCCCCCCCCCCCOC(=O)Cl, the T/C [1] was 90 % of control, the T/C [2] was 92 % of control and the T/C (dose: 200.0 mg/kg/injection, schedule: Q01DX009 (ip), vehicle: Klucel (hydroxypropylcellulose) (HPC)) was 96 % of control. For the same molecule, the T/C (dose: 400.0 mg/kg/injection, schedule: Q01DX009 (ip), vehicle: Klucel (hydroxypropylcellulose) (HPC)) was 91 % of control.

With C=C(C)C(=O)O[C@H]1[C@H]2[C@H](OC(=O)[C@H]2C)[C@H](O)[C@@H](C)[C@@H]2C=CC(=O)[C@]21C the T/C (dose: 7.5 mg/kg/injection, schedule: Q01DX009 (ip), vehicle: saline) was 100 % of control, the T/C (dose: 15.0 mg/kg/injection, schedule: Q01DX009 (ip), vehicle: saline with Tween-80) was 98 % of control and the T/C (dose: 15.0 mg/kg/injection, schedule: Q01DX009 (ip), vehicle: saline) was 106 % of control. The T/C (dose: 30.0 mg/kg/injection, schedule: Q01DX009 (ip), vehicle: saline with Tween-80) was 114 % of control, the T/C (dose: 30.0 mg/kg/injection, schedule: Q01DX009 (ip), vehicle: saline) was 117 % of control and the T/C (dose: 60.0 mg/kg/injection, schedule: Q01DX009 (ip), vehicle: saline with Tween-80) was 119 % of control.

With CCC(CC)COC(=O)c1ccccc1C(=O)OCC(CC)CC the T/C (dose: 12.5 mg/kg/injection, schedule: Q01DX009 (ip), vehicle: saline with Tween-80) was 87 % of control.

N#CCCCc1ccccc1 was tested, and the T/C [1] was 112 % of control and the T/C [2] was 106 % of control.

C[C@]12C=CC(=O)C=C1CC[C@@H]1[C@@H]2[C@@H](O)C[C@@]2(C)[C@H]1CC[C@]2(O)C(=O)CO was tested, and the T/C (dose: 10.0 mg/kg/injection, schedule: Q02DX009 (ip), vehicle: Klucel (hydroxypropylcellulose) (HPC)) was 91 % of control, the T/C (dose: 20.0 mg/kg/injection, schedule: Q02DX009 (ip), vehicle: Klucel (hydroxypropylcellulose) (HPC)) was 100 % of control and the T/C (dose: 40.0 mg/kg/injection, schedule: Q02DX009 (ip), vehicle: Klucel (hydroxypropylcellulose) (HPC)) was 96 % of control. The T/C (dose: 80.0 mg/kg/injection, schedule: Q02DX009 (ip), vehicle: Klucel (hydroxypropylcellulose) (HPC)) was 103 % of control, the T/C (dose: 160.0 mg/kg/injection, schedule: Q02DX009 (ip), vehicle: Klucel (hydroxypropylcellulose) (HPC)) was 109 % of control and 115 % of control and the T/C (dose: 320.0 mg/kg/injection, schedule: Q02DX009 (ip), vehicle: Klucel (hydroxypropylcellulose) (HPC)) was 92 % of control.

For COc1cc(NS(C)(=O)=O)ccc1Nc1c2ccccc2nc2c(C)cccc12, the T/C (dose: 2.0 mg/kg/injection, schedule: Q01DX009 (ip), vehicle: saline) was 151 % of control, the T/C (dose: 2.5 mg/kg/injection, schedule: Q01DX009 (ip), vehicle: other) was 180 % of control and the T/C (dose: 4.0 mg/kg/injection, schedule: Q01DX009 (ip), vehicle: saline) was 213 % of control. For the same molecule, the T/C (dose: 5.0 mg/kg/injection, schedule: Q01DX009 (ip), vehicle: other) was 190 % of control, the T/C (dose: 5.0 mg/kg/injection, schedule: Q01DX009 (ip), vehicle: saline with Tween-80) was 167 % of control and the T/C (dose: 10.0 mg/kg/injection, schedule: Q01DX001 (ip), vehicle: saline sonified) was 163 % of control. For the same molecule, the T/C (dose: 12.5 mg/kg/injection, schedule: Q04DX003 (ip), vehicle: Klucel (hydroxypropylcellulose) (HPC)) was 160 % of control, the T/C (dose: 20.0 mg/kg/injection, schedule: Q01DX001 (ip), vehicle: saline sonified) was 166 % of control and the T/C (dose: 25.0 mg/kg/injection, schedule: Q04DX003 (ip), vehicle: Klucel (hydroxypropylcellulose) (HPC)) was 200 % of control. For the same molecule, the T/C (dose: 60.0 mg/kg/injection, schedule: Q01DX001 (ip), vehicle: saline sonified) was 183 % of control.

For O=C(O)CCNCc1ccccc1, the T/C (dose: 12.5 mg/kg/injection, schedule: Q01DX009 (ip), vehicle: saline) was 111 % of control, the T/C (dose: 50.0 mg/kg/injection, schedule: Q01DX009 (ip), vehicle: saline) was 102 % of control and the T/C (dose: 100.0 mg/kg/injection, schedule: Q01DX009 (ip), vehicle: saline) was 106 % of control. For the same molecule, the T/C (dose: 200.0 mg/kg/injection, schedule: Q01DX009 (ip), vehicle: saline) was 111 % of control.
